As a reminder, the IC50 is the concentration needed to halve the response being measured. High values mean weaker potency, low ones greater potency.

Chain of Cdk9/cyclinT1 (P50750 whole entry): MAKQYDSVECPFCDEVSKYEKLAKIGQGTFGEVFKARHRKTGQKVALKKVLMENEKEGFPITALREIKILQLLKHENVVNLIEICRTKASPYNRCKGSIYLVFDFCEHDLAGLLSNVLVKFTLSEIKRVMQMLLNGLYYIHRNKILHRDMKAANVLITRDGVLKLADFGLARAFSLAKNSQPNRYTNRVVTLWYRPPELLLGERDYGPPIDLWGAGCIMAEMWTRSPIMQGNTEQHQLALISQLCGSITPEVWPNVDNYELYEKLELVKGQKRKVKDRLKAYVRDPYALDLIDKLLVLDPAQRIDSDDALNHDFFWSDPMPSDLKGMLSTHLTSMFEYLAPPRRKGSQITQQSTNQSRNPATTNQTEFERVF
Chain of Cdk9/cyclinT1 (O60563 whole entry partner): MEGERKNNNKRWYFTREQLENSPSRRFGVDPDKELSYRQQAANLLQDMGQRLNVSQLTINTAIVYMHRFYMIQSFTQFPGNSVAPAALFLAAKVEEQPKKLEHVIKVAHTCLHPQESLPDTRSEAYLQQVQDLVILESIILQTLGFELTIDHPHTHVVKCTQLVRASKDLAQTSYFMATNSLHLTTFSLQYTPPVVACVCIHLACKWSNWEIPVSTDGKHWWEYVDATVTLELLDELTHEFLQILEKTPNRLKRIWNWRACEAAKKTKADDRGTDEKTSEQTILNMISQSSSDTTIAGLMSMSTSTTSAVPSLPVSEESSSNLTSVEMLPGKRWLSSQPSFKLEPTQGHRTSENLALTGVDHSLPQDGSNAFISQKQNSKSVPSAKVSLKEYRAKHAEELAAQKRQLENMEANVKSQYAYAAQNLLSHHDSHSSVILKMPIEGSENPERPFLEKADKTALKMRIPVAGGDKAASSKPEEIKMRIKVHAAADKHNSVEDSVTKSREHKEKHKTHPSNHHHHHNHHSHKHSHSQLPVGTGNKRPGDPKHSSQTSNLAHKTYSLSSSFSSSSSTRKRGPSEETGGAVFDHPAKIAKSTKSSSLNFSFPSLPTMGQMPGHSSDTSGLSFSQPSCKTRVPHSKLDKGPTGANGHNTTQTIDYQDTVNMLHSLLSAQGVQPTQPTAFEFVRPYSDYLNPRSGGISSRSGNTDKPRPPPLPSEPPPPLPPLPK

The first experiment addresses Cdk9/cyclinT1 (Homo sapiens, UniProt P50750). Put plainly: Cdk9/cyclinT1 IMAP Protocol (fluorescence polarization kinase assay). Conditions: Cdk9_cyclinT1_IC50, Table V; generated using one of the two Cdk9/cyclinT1 assays (IMAP or Alpha Screen), not stated which; ATP 6 uM. In general terms: Polarisation of emitted light reports the rotation of a fluorescent probe.
In turn, `C[C@@H]1CC[C@@H](C(=O)Nc2cc(-c3cccc(NC[C@H]4CCOC(C)(C)C4)n3)ccn2)CN1` (mixture of isomers) [Example 228, (3R,6R)-/(3S,6S)-6-Methyl-piperidine-3-carboxylic acid {6-[((S)-2,2-dimethyl-tetrahydro-pyran-4-ylmethyl)-amino]-[2,4′]bipyridinyl-2′-yl}-amide] had an IC50 of 2 nM.

In turn, `C[C@H]1CC[C@@H](C(=O)Nc2cc(-c3cccc(NCC4CCOCC4)n3)c(Cl)cn2)CN1` (racemic) [Example 126, (3R,6S)-/(3S,6R)-6-Methyl-piperidine-3-carboxylic acid {5′-chloro-6-[(tetrahydro-pyran-4-ylmethyl)-amino]-[2,4′]bipyridinyl-2′-yl}-amide] gave an IC50 of 18 nM.

For `COCCCNc1cccc(-c2cc(NC(=O)[C@@H]3CCCNC3)ncc2Cl)n1` [Example 28, (R)-Piperidine-3-carboxylic acid [5′-chloro-6-(3-methoxy-propylamino)-[2,4′]bipyridinyl-2′-yl]-amide], the midpoint of inhibition, the IC50, lay at 21 nM. Still for that read-out and setting: as for `O=C(Nc1cc(-c2cccc(N3CCC(O)CC3)n2)c(Cl)cn1)[C@@H]1CCCNC1` [Example 43, (R)-Piperidine-3-carboxylic acid (5″- chloro-4-hydroxy-3,4,5,6-tetrahydro-2H-[1,2′;6′,4″]terpyridin-2″- yl)-amide], the figure is 57 nM; as for `O=C(Nc1cc(-c2cccc(NCC3CCOCC3)n2)c(Cl)cn1)[C@H]1CNC[C@H]1O` [Example 121, (3S,4S)-4-hydroxy-pyrrolidine-3-carboxylic acid {5′-chloro-6-[(tetrahydro-pyran-4-ylmethyl)-amino]-[2,4′]bipyridinyl-2′-yl}-amide], 134 nM; as for `COCCN1CCC[C@@H](C(=O)Nc2cc(-c3cccc(NCC4CCOCC4)n3)c(Cl)cn2)C1` [Example 16, (R)-1-(2-Methoxy-ethyl)-piperidine-3-carboxylic acid {5′-chloro-6-[(tetrahydro-pyran-4-ylmethyl)-amino]-[2,4′]bipyridinyl-2′-yl}-amide], 855 nM. Still for that read-out and setting: as for `CC[C@H]1CC[C@@H](C(=O)Nc2cc(-c3cccc(NCC4CCOCC4)n3)c(Cl)cn2)CN1` [Example 247, (3R,6S)-6-Ethyl-piperidine-3-carboxylic acid {5′-chloro-6-[(tetrahydro-pyran-4-ylmethyl)-amino]-[2,4′]bipyridinyl-2′-yl}-amide], the figure is 7 nM; as for `CC1(C)C[C@@H](CNc2cccc(-c3cc(NC(=O)[C@@H]4CCCNC4)ncc3Cl)n2)CCO1` (single isomer, unassigned) [Example 116, (R)-piperidine-3-carboxylic acid {5′-chloro-6-[((S)-2,2-dimethyl-tetrahydro-pyran-4-ylmethyl)-amino]-[2,4′]bipyridinyl-2′-yl}-amide or (R)-piperidine-3-carboxylic acid {5′-chloro-6-[((R)-2,2-dimethyl-tetrahydro-pyran-4-ylmethyl)-amino]-[2,4′]bipyridinyl-2′-yl}-amide], 2 nM; as for `O=C(Nc1cc(-c2cccc(N3CCC(c4ccccc4)CC3)n2)c(Cl)cn1)[C@@H]1CCCNC1` [Example 42, (R)-Piperidine-3-carboxylic acid (5″- chloro-4-phenyl-3,4,5,6-tetrahydro-2H-[1,2′;6′,4″]terpyridin-2″- yl)-amide], 42 nM. Compound `O=C(Nc1cc(-c2cccc(NCC3CCOCC3)n2)c(Cl)cn1)[C@@H]1CNC[C@H](C(F)(F)F)C1` (single isomer, unassigned) [Example 183] came in with an IC50 of 55 nM.

As to `COC(=O)N1CCC[C@H](C(=O)Nc2cc(-c3cccc(NCC4CCS(=O)(=O)CC4)n3)c(Cl)cn2)C1` [Example 152, (S)-3-{5′-Chloro-6-[(1′,1′-dioxo-hexahydro-1-thiopyran-4-ylmethyl)-amino]-[2,4′]bipyridinyl-2′-ylcarbamoyl}-piperidine-1-carboxylic acid methyl ester], the IC50 is under 8 nM.

The compound `O=C(Nc1cc(-c2cccc(NCc3ccccc3)n2)c(Cl)cn1)[C@@H]1CCCNC1` [Example 39, (R)-Piperidine-3-carboxylic acid (6-benzylamino-5′-chloro-[2,4′]bipyridinyl-2′-yl)-amide] came in with an IC50 of under 8 nM. Same read-out and setting: to `CC1(C)CCC(C(=O)Nc2cc(-c3ccc(F)c(NCC4CCOCC4)n3)c(Cl)cn2)CN1` (stereo not shown) [Example 210, 6,6-Dimethyl-piperidine-3-carboxylic acid {5′-chloro-5-fluoro-6-[(tetrahydro-pyran-4-ylmethyl)-amino]-[2,4′]bipyridinyl-2′-yl}-amide] belongs 1 nM; to `CC1(C)CO[C@@H](CNc2nc(-c3cc(NC(=O)[C@@H]4CCCNC4)ncc3Cl)ccc2F)CO1` (single isomer, unassigned) [Example 264], 1 nM. Compound `CC1(C)CC(CNc2cccc(-c3cc(NC(=O)[C@@H]4CCCNC4)ncc3Cl)n2)CCO1` (stereo partly drawn) [Example 94, (R)-Piperidine-3-carboxylic acid {5′-chloro-6-[(2,2-dimethyl-tetrahydro-pyran-4-ylmethyl)-amino]-[2,4′]bipyridinyl-2′-yl}-amide] came in with a half-maximal inhibitory concentration (IC50) of under 8 nM. Still for that read-out and setting: as for `COC[C@@H]1C[C@@H](C(=O)Nc2cc(-c3ccc(F)c(NCC4(OC)CCOCC4)n3)c(Cl)cn2)CN1` [Example 253, (3R,5S)-5-Methoxymethyl-pyrrolidine-3-carboxylic acid {5′-chloro-5-fluoro-6-[(4-methoxy-tetrahydro-pyran-4-ylmethyl)-amino]-[2,4′]bipyridinyl-2′-yl}-amide], the figure is 1 nM; as for `O=C(Nc1cc(-c2cccc(NCC3CCOCC3)n2)c(Cl)cn1)[C@H]1CN[C@@H](CF)C1` [Example 179, (3R,5R)-5-Fluoromethyl-pyrrolidine-3-carboxylic acid {5′-chloro-6-[(tetrahydro-pyran-4-ylmethyl)-amino]-[2,4′]bipyridinyl-2′-yl}-amide], 7 nM; as for `C[C@H]1CC[C@H](C(=O)Nc2cc(-c3ccc(F)c(NCC4CCOCC4)n3)c(Cl)cn2)CN1C` (single isomer, unassigned) [Example 197], 4 nM. Same read-out and setting: to `CC[C@@H]1CC[C@@H](C(=O)Nc2cc(-c3ccc(F)c(NCC4CCOCC4)n3)c(Cl)cn2)CN1` (single isomer, unassigned) [Example 256] belongs 1 nM. Still for that read-out and setting: to `O=C(Nc1cc(-c2cccc(N3CCOCC3)n2)c(Cl)cn1)[C@@H]1CCCNC1` [Example 45, (R)-Piperidine-3-carboxylic acid (5′-chloro-6-morpholin-4-yl-[2,4′]bipyridinyl-2′-yl)-amide] belongs 154 nM; to `CNc1cccc(-c2cc(NC(=O)[C@@H]3CCCNC3)ncc2Cl)n1` [Example 21, (R)-Piperidine-3-carboxylic acid (5′-chloro-6-methylamino-[2,4′]bipyridinyl-2′-yl)-amide], 76 nM. In turn, `O=C(Nc1cc(-c2cccc(NCC3CCOCC3)n2)c(Cl)cn1)c1cccnc1` [Example 71, N-{5′-Chloro-6-[(tetrahydro-pyran-4-ylmethyl)-amino]-[2,4′]bipyridinyl-2′-yl}-nicotinamide] showed an IC50 of 56 nM.

`COC(=O)N[C@H]1CC[C@@H](C(=O)Nc2cc(-c3nc(NCC4CCOCC4)ccc3Cl)c(Cl)cn2)C1` [Example 107, ((lS,3R)-3-{3,5′-Dichloro-6-[(tetrahydro-pyran-4-ylmethyl)-amino]-[2,4′]bipyridinyl-2′-ylcarbamoyl}-cyclopentyl)-carbamic acid methyl ester]: the half-inhibitory concentration (IC50) is under 8 nM.

`CC1(C)CCC(C(=O)Nc2cc(-c3cccc(NCC4CCOCC4)n3)ccn2)CN1` (stereo not shown) [Example 195, 6,6-Dimethyl-N-(6-(((tetrahydro-2H-pyran-4-yl)methyl)amino)-2,4′-bipyridin-2′-yl)piperidine-3-carboxamide]: the IC50 came out at 2 nM.

`O=C(Nc1cc(-c2cccc(NCC3CCOCC3)n2)c(Cl)cn1)[C@H]1CCCN(S(=O)(=O)C2CC2)C1` [Example 93, (S)-1-Cyclopropanesulfonyl-piperidine-3-carboxylic acid {5′-chloro-6-[(tetrahydro-pyran-4-ylmethyl)-amino]-[2,4′]bipyridinyl-2′-yl}-amide] returned an IC50 of under 8 nM. In turn, `CC1(C)COC[C@@H](CNc2cccc(-c3cc(NC(=O)[C@@H]4CCCNC4)ncc3Cl)n2)O1` (single isomer, unassigned) [Example 233] returned an IC50 of 1 nM. This counts as single-digit nanomolar. The same measure, in the same setting: as for `CO[C@@H]1CNC[C@H](C(=O)Nc2cc(-c3cccc(NCC4CCOCC4)n3)c(Cl)cn2)C1` (single isomer, unassigned) [Example 211], the figure is 2 nM; as for `O=C(Nc1cc(-c2cccc(NCC3CCOCC3)n2)c(Cl)cn1)[C@H]1CNCCO1` [Example 96, (R)-Morpholine-2-carboxylic acid {5′-chloro-6-[(tetrahydro-pyran-4-ylmethyl)-amino]-[2,4′]bipyridinyl-2′-yl}-amide], 5 nM.

Staying with this experiment, now noted: Cdk9_cyclinT1_IC50, generated using one of the two Cdk9/cyclinT1 assays (IMAP or Alpha Screen), not specified per value; ATP 6 uM.
In the case of `O=C(Nc1cc(-c2cnc(Cl)c(NCC3CCOCC3)c2)c(Cl)cn1)[C@@H]1CCCNC1` [Example 302, (R)-Piperidine-3-carboxylic acid {6,5′-dichloro-5-[(tetrahydro-pyran-4-ylmethyl)-amino]-[3,4′]bipyridinyl-2′-yl}-amide], the IC50 was under 8 nM.

As to `O=C(Nc1cc(-c2cncc(F)c2)c(Cl)cn1)[C@@H]1CCCNC1` [Example 308, (R)-Piperidine-3-carboxylic acid (5′-chloro-5-fluoro-[3,4′]bipyridinyl-2′-yl)-amide], the IC50 was 531 nM.

Compound `CC(C)(C)OC(=O)N1CCC[C@@H](C(=O)Nc2cc(-c3cncc(NCC4CCOCC4)c3)c(Cl)cn2)C1` [Example 304, (R)-3-{5′-Chloro-5-[(tetrahydro-pyran-4-ylmethyl)-amino]-[3,4′]bipyridinyl-2′-ylcarbamoyl}-piperidine-1-carboxylic acid tert-butyl ester] displayed a half-inhibitory concentration (IC50) of 81 nM.

Values taken from patent US20110130380A1, “Heteroaryl Kinase Inhibitors” (priority 2009, published 2011).
